Assay results as given in US20080070987A1, “META-XYLYLENEDIAMINE VANADATE SALTS” (priority 2006, published 2008).

Legend:
[1] = system: isolated mouse adipocytes; assay: Glucose (2-deoxyglucose) transport in isolated mouse adipocytes; assay type: cell-based, FVB mice; conditions: 100 μM
Procedure: Adipose cells from FVB mice were incubated for 45 minutes in basal conditions (Basal) or in the presence of 100 nM insulin (Ins), and different concentrations of hexaquis(benzylammonium) decavanadate (B6V10) in the absence or in the presence of 1 mM semicarbazide (SCZ) and thereafter, 2-DG transport was measured over 5 min.

[2] = system: streptozotocin-induced diabetic rats; assay: Chronic subcutaneous (osmotic minipump) treatment of streptozotocin-induced diabetic rats, glycemia; assay type: in vivo, rat; conditions: for effect on glycemia, in words: streptozotocin (45 mg/kg) diabetic rats, 2.5 μmol/kg/day subcutaneous by osmotic minipumps, about two weeks
Procedure: FIG. 3 is a graphical illustration of hexaquis(benzylammonium) decavanadate chronic treatment effect on glycemia of diabetic rats by streptozotocin. In FIG. 3, [G] corresponds to the blood concentration of glucose (expressed in mg/dl) measured at different days of treatment (t/d). Diabetic rats were treated, by mini-osmotic pumps, with buffered solution (black diamonds), with hexaquis(benzylammonium) decavanadate (2.5 μmol/kg/day) (black squares) or with identical dose of sodium decavanadate (white circles).
The effect of chronic administration of hexaquis(benzylammonium) decavanadate on glycemia from diabetic rats was determined. Diabetes was induced in rats by intravenous administration of streptozotocin, which destroys the β-pancreatic cells that produce insulin.
Male Wistar rats weighting 180-220 g were purchased from Harlan (Interfauna Ibérica S.A., Spain). Diabetes was induced by a single intraperitoneal injection of a freshly prepared solution of streptozotocin (in some studies the dose was 45 mg/kg body weight and in some others 100 mg/kg body weight dissolved in 50 mM citrate buffer, pH 4.5). Only diabetic animals with glycemia above 300 mg/dl were used. The animals were housed in animal quarters at 22° C. with a 12 h light/12 h dark cycle and were fed ad libitum. All procedures used were approved by the animal ethical committee of the University of Barcelona, Spain. Male mice C57 BL/Ks bearing the db/db mutation (Jackson Laboratories, Bar Harbor, Me.) were purchased from Harlan France (Gannat, France). C57BL/6J male mice were assigned for 16 weeks to very high-fat diet containing (in kcal): 72% from fat, 28% from proteins and <1% from carbohydrates (Burcelin et al., 2002, Am. J. Physiol. Endocrinol. Metab 282: E834-E842).
Osmotic minipumps delivering B6V10 (2.5 μmol/kg body wt/day) or decavanadate (2.5 μmol/kg body wt/day) were implanted subcutaneously in diabetic rats anaesthetised by ketamine hydrochloride (95 mg/kg) and xylasine (10 mg/kg). […] Glycemia was measured on arterio-venous blood collected from the tail vessels at 09:00 am for two weeks, before the administration of vanadate. Insulin concentrations were determined before and after treatment. In another set of experiments, B6V10 was orally administered at a single dose of 5 μmol/kg/day during the first week and 10 μmol/kg/day during 2 additional weeks by gastric gavage. A control group received the corresponding decavanadate salt in the absence of benzylamine. At the end of the treatment, animals were sacrificed and the liver, fat pad, heart and lung were kept at −80° C. and the plasma at −20° C. until their use for in vitro analysis.
In glucose tolerance tests and in chronic treatments, circulating glucose concentrations were determined by a rapid glucose analyser (Accutrend® Sensor Comfort, Roche, Basel. Switzerland). Plasma insulin (IRI) concentration was determined by ELISA method using a kit obtained from Crystal Chem. Inc. (Downers Grove, Ill.). Plasma triglycerides (Biosystems, Barcelona, Spain) and NEFAS (Wako Chemicals, Neuss, Germany) were determined with standard […] methods.
Chronic in vivo efficacy of B6V10 was evaluated in streptozotocin-induced diabetic rats and in db/db mice. Streptozotocin-induced (45 mg/kg) diabetic rats were subcutaneously treated with hexaquis(benzylammonium) decavanadate (2.5 μmol/kg) (B6V10, solid squares, FIG. 8A) or with decavanadate (2.5 μmol/kg) (V10, open circles, FIG. 8A) delivered subcutaneously by osmotic minipumps implanted in the dorsal region. Diabetic rats were also sham-operated (untreated, solid diamonds, FIG. 8A). […] These experiments were repeated using an oral administration protocol. Streptozotocin-induced (45 mg/kg) diabetic rats were orally treated with hexaquis(benzylammonium) decavanadate (5 μmol/kg from day 0 to day 7 and 10 μmol/kg/day from day 7 to day 17) (B6V10, solid squares, FIG. 8B) or received decavanadate (10 μmol/kg) (V10, open circles, FIG. 8B). […]

Substance: hexaquis(benzylammonium) decavanadate [Example B6V10]
- stimulation of glucose transport (% increase) [1]: 93%
- time at which reduction of hyperglycemia was detected ([2]; 2.5 μmol/kg/day subcutaneous minipumps): after only four days of treatment
- glucose transport in adipocytes isolated from treated rats ([2]; adipocytes isolated at fourteen days of treatment): increased glucose transport under basal conditions equivalent to that seen in the presence of insulin
- effect on glycemia, in words [2]: significant correction of hyperglycemia
- effect on glycemia, in words ([2]; listed as hexaquis(benzylammonium) decavanadate): rapid reduction of the hyperglycemia

Substance: sodium decavanadate [Example V10, reference compound]
- effect on glycemia, in words [2]: did not alter glycemia
- effect on glycemia, in words ([2]; listed as sodium decavanadate): did not modify substantially its glycemia
